The text below walks through data of patent US11891386B2, “Indole compounds and their use” (ARIAGEN, INC., priority 2017, dated 2024).

Data set [1] has as its system CYP1A1 in human HepG2 cells. As to the kind of experiment: EROD assay (7-ethoxy-resorufin-O-deethylase), human HepG2 cells. It counts as cell-based. The conditions noted are these: for activity group based on EC50 values, in the order of increasing activity: human EROD assay, oxadiazole derivatives of ITE. More on the design: key to activity group based on EC50 values, in the order of increasing activity: (1) active; (2) more active; (3) most active. The procedure: (§1) CYP1A1 induction is under the control of the AhR signaling pathway. This Example describes an in vitro assay (7-ethoxy-resorufin-O-deethylase (EROD) assay) that evaluated the AhR modulating activities of the indole compounds described herein. In this assay, the indole compounds were incubated with human HepG2 cells or mouse Hepal-6 cells. The activity of CYP1A1 in the cells was measured by the conversion of substrate 7-ethoxyresorufin, with the readout being a fluorescence signal associated with the conversion product. The EC50 values of the indole compounds as well as the maximum […] induced by them in the assay were determined.
(§2) Human HepG2 cells were obtained from Sigma Aldrich (Catalog 85011430-1VL). Mouse Hepal-6 cells also were obtained from Sigma Aldrich (Catalog 92110305-1V).
(§3) Human HepG2 and Mouse Hepal-6 cells were grown to 60-80% confluency in tissue culture flasks, lifted with non-enzymatic cell dissociation solution (cell stripper), seeded in a 384-well plate at 5,000 cells per well, treated with the test compounds, and incubated for 20 hours overnight at 37° C. The treatment medium was removed and a solution of substrate 7-ethoxyresorufin (ETX) was added to initiate the reaction. The plate was incubated at 37° C. for 30 minutes. The reaction was subsequently terminated by adding tempered methanol. Fluorescent emission was measured at 590 nm with excitation at 530 nm in a FLEXSTATION III instrument (Molecular Devices).

A short description of data set [2]: In vivo pharmacokinetic study in Sprague-Dawley rats. As to conditions: rat; for bioavailability: Sprague-Dawley, plasma, po, 10 mg/kg, PO (10 mg/kg) vs IV (2 mg/kg), read-out: F % (bioavailability); for % of Hepatisc Blood Flow: IV (2 mg/kg). The procedure: This example describes pharmacokinetic (PK) studies of the various indole compounds described herein in rats, a rodent species widely used for pre-clinical toxicology evaluation. In the present studies, the test compounds were given to groups of Sprague-Dawley rats (N=3 in each group) intravenously (IV) at 2 mg/kg or orally (PO) at 10 mg/kg. IV doses were formulated in DMSO, while PO doses were formulated in a 50/50 mixture of PEG400 and Tween 80. Blood samples were collected at pre-dose and over a period of 24 hours post-dose. Plasma concentrations of the indole compounds were determined by HPLC.

For data set [3], the system named is EMT-6 syngeneic mouse tumor model (breast cancer). As to the kind of experiment: Anti-tumor activity, EMT-6 syngeneic mouse tumor model. It counts as in vivo. The conditions noted are these: for inhibition in vivo at 40 mg/kg: Mus musculus, EMT6, ip, read-out: TGI (tumor growth inhibition). The protocol: (§4) This example describes in vivo studies that evaluated the anti-cancer efficacy of the disclosed indole compounds in syngeneic mouse tumor models. Mice implanted subcutaneously with four types of cancer cells were treated with test indole compounds or vehicle controls as described below.
(§5) A monolayer culture of tumor cells was maintained in vitro in DMEM or RPMI1640 medium supplemented with 10% fetal bovine serum at 37° C. in an atmosphere of 5% CO2. Cells in exponential growth phase were harvested and quantitated by cell counter before tumor inoculation. The cell lines used are described in the table below.
(§6) Four subcutaneous syngeneic mouse tumor models were generated by innoculating female BALB/C or C57BL/6 mice with cancer cells at their right lower or front flank as detailed in the table below:
(§7) Each mouse was inoculated subcutaneously with tumor cells in 0.1 mL of PBS. Treatments were started when the mean tumor size reached approximately 80-120 mm^3 (around 100 mm^3). The administration of the indole compounds and the animal number in each study group are shown in the study design. The date of tumor cell inoculation was denoted as day 0.
(§8) The indole compounds were dissolved in DMSO at the final concentration of 26.7 mg/ml and stored at room temperature.
(§9) Randomization of animals was started when the mean tumor size reached approximately 90 mm^3 to form the mouse study groups. The randomization was performed based on “Matched distribution” method using the multi-task method (StudyDirector™ software, version 3.1.399.19)/randomized block design. The mouse groups (ten in each group) were treated with vehicle (DMSO) or the indole compounds at a dose of 40 mg/kg by i.p. injection, QD for 28 days or longer.
(§10) After tumor cell inoculation, the mice were checked daily for morbidity and mortality. During routine monitoring, the mice were checked for tumor growth and any effects of the treatment on behavior such as mobility, food and water consumption, body weight gain/loss (body weights were measured twice per week after randomization), eye/hair matting, and any other abnormalities. Mortality and observed clinical signs were recorded for individual mice in detail.
(§11) Tumor volumes were measured twice per week in two dimensions using a caliper, and the volume was expressed in mm^3 using the formula: V=(L×W×W)/2, where V is tumor volume, L is tumor length (the longest tumor dimension) and W is tumor width (the longest tumor dimension perpendicular to L). Dosing as well as tumor and body weight measurements was conducted in a Laminar Flow Cabinet. The body weights and tumor volumes were measured by using StudyDirector™ software (version 3.1.399.19). Dosing Holiday
Tumor growth inhibition percentage (TGI %) is an indicator for antitumor activity of a drug compound, and expressed as: TGI (%)=100×(1−T/C), where T and C are the mean tumor volume (or weight) of the treated and control groups, respectively, on a given day. Statistical analysis of the difference in mean tumor volume (MTV) among the groups was conducted using the data collected on the day when the MTV of the vehicle group reached the humane endpoints, so that TGI could be derived for all or most mice enrolled in the study.
In Studies 1 and 3, the anti-tumor activity of ARI-001 in parallel with ARI-002 at 160 mg/kg (mpk), and the anti-tumor activity of ARI-087 in parallel with ARI-002 at 40 mpk were assessed using the EMT-6, Pan02, A20, and LL/2 models. Because EMT-6 provides a fast-growing model that enables relatively quick differentiation of performance between compounds, this syngeneic mouse tumor model was chosen for the other studies. In Study 2, the anti-tumor activity of ARI-002 was compared with that of ARI-004 at 10, 40, and 80 mpk. In Study 4, the anti-tumor activity of ARI-087 was compared with that of ARI-140. In Study 5, the anti-tumor activity of ARI-087 was evaluated in parallel with ARI-143 and ARI-149 at 40 mpk. […]

Data set [4] concerns Pan02 syngeneic mouse tumor model (pancreatic cancer). As to the kind of experiment: Anti-tumor activity, Pan02 syngeneic mouse tumor model. It counts as in vivo. The conditions noted are these: Study 3, Pan02, 40 mpk i.p. QD, D60. The protocol:
as §4, §5, §6, §7, §8
Randomization of animals was started when the mean tumor size reached approximately 90 mm^3 to form the mouse study groups. […]
as §10
Tumor volumes were measured twice per week in two dimensions using a caliper, and the volume was expressed in mm^3 using the formula: V=(L×W×W)/2, where V is tumor volume, L is tumor length (the longest tumor dimension) and W is tumor width (the longest tumor dimension perpendicular to L). […] The body weights and tumor volumes were measured by using StudyDirector™ software (version 3.1.399.19). […]
(§12) Tumor growth inhibition percentage (TGI %) is an indicator for antitumor activity of a drug compound, and expressed as: TGI (%)=100×(1−T/C), where T and C are the mean tumor volume (or weight) of the treated and control groups, respectively, on a given day. […]
In Studies 1 and 3, the anti-tumor activity of ARI-001 in parallel with ARI-002 at 160 mg/kg (mpk), and the anti-tumor activity of ARI-087 in parallel with ARI-002 at 40 mpk were assessed using the EMT-6, Pan02, A20, and LL/2 models. […]

The test system of data set [5] is A20 syngeneic mouse tumor model (B cell lymphoma). Briefly: Anti-tumor activity, A20 syngeneic mouse tumor model. The data set is classed as in vivo. The conditions noted are these: for TGI (tumor growth inhibition): Study 3, A20, 40 mpk i.p. QD, D28. The procedure: as §4, §5, §6, §7, §8, §9, §10, §11, §12
(§13) In Studies 1 and 3, the anti-tumor activity of ARI-001 in parallel with ARI-002 at 160 mg/kg (mpk), and the anti-tumor activity of ARI-087 in parallel with ARI-002 at 40 mpk were assessed using the EMT-6, Pan02, A20, and LL/2 models. […] In Study 5, the anti-tumor activity of ARI-087 was evaluated in parallel with ARI-143 and ARI-149 at 40 mpk. […]

Data set [6] has as its system LL/2 syngeneic mouse tumor model (lung cancer). Briefly: Anti-tumor activity, LL/2 syngeneic mouse tumor model. The data set is classed as in vivo. As to conditions: for TGI (tumor growth inhibition): Study 3, LL/2, 40 mpk i.p. QD. The protocol:
as §4, §5, §6, §7, §8, §9, §10, §11, §12, §13

Data set [7] in a line: Separate PK study in mice. The data set is classed as in vivo. The conditions noted are these: data not shown.
Data set [8] concerns CYP1A1 in mouse Hepal-6 cells. Briefly: EROD assay (7-ethoxy-resorufin-O-deethylase), mouse Hepa1-6 cells. The data set is classed as cell-based. The conditions noted are these: EROD assay, 20 hours treatment. The protocol:
as §1, §2, §3

Where [9] appears, read: 648 h, Study 3, EMT-6, 40 mpk i.p. QD, D27.

Structures are written as SMILES. Where two headings read alike, the source gives them in different places.

As for `Cc1nc(-c2csc(C(=O)c3c[nH]c4ccccc34)n2)no1` [ARI-030, (1H-indol-3-yl)(4-(5-methyl-1,2,4-oxadiazol-3-yl)thiazol-2-yl)methanone], the “activity group based on EC50 values, in the order of increasing activity” value in data set [1] is recorded as “active”. In data set [1] (human HepG2 cells), the “activity in the human EROD assay compared to ARI-001 / ARI-002, in words” value is on record as “significantly more (about 4 to 900 times more) active than ARI-001”. In data set [2], the bioavailability came out at 0.9%. The “IV PK profile compared to ARI-001, ARI-002, and ARI-004, in words” value in data set [2] (IV) is “improved IV PK profiles”. Also, in data set [2], the “% of Hepatisc Blood Flow” value worked out at 28%. In addition, in data set [3] (setting [9]), the inhibition in vivo at 40 mg/kg stood at 21.9%. Besides, the “TGI (tumor growth inhibition)” value is recorded as 23.5% D60 in data set [4], −0.8% D28 in data set [5] and 8.4% D28 in data set [6] (D28). Besides, in data set [7], the “PK improvement over ARI-001 and ARI-002, in words” value is reported as “confirms the improvement”.

For `Cc1noc(-c2csc(C(=O)c3c[nH]c4ccccc34)n2)n1` [ARI-031, (1H-indol-3-yl)(4-(3-methyl-1,2,4-oxadiazol-5-yl)thiazol-2-yl)methanone], the “activity group based on EC50 values, in the order of increasing activity” value in data set [1] is listed as “active”. For the same compound, the “activity in the human EROD assay compared to ARI-001 / ARI-002, in words” value in data set [1] (human HepG2 cells) is on record as “significantly more (about 4 to 900 times more) active than ARI-001”. For the same compound, in data set [2], the bioavailability was determined as 6.3% and the “% of Hepatisc Blood Flow” value stood at 103%. Also, the “IV PK profile compared to ARI-001, ARI-002, and ARI-004, in words” value in data set [2] (IV) is “improved IV PK profiles”. Further, the “PK improvement over ARI-001 and ARI-002, in words” value in data set [7] is given as “confirms the improvement”.

As for `CCC(=O)c1csc(C(=O)c2c[nH]c3ccc(F)cc23)n1` [ARI-087, 1-(2-(5-fluoro-1H-indole-3-carbonyl)thiazol-4-yl)propan-1-one], the EC50 in data set [1] (EROD assay, human HepG2 cells, 20 hours treatment) is 34.2 nM; in data set [8], 5.8 nM. For the same compound, in data set [2], the bioavailability came out at 19.7%. In data set [2] (IV), the “IV AUCinf, % of that of ARI-002” value is on record as 45%. Besides, in data set [2] (IV), the “plasma clearance, times higher than ARI-002” value was determined as 3.2 times. Further, in data set [2], the “% of Hepatisc Blood Flow” value came out at 84%. The “PO AUCinf, % of that of ARI-002” value in data set [2] (PO) came to 81%. Besides, in data set [2] (PO), the “absolute oral bioavailability, times higher than ARI-002” value was 1.8 times. The “anti-tumor potency, in words” value in data set [3] (EMT-6 model, 40 mpk) is on record as “better tumor inhibitory activity than parent compound ARI-002”. Besides, the “tumor growth and survival, in words” value in data set [3] (EMT-6 model, 40 mpk) was “delayed tumor growth and prolonged survival”. In addition, the “complete tumor regression (CR)” value in data set [3] (EMT-6 model, Study 4, by day 46) is reported as “did not result in a CR until day 81”; in data set [3] (EMT-6 model, Study 5, by day 51), “did not have any animal in CR”. Also, the “animals with tumor volumes<1000 mm^3” value in data set [3] (EMT-6 model, day 27, 40 mpk) is 6 out of 10. Further, the inhibition in vivo at 40 mg/kg in data set [3] (624 h, Study 6, EMT-6, 40 mpk i.p. QD, D26) is 52.8%; in data set [3] (setting [9]), 56.7%; in data set [3] (672 h, Study 4, EMT-6, 40 mpk i.p. QD, D28), 29.5%; in data set [3] (720 h, Study 5, EMT-6, 40 mpk i.p. QD, D30) it was 42.2%. Further, the “TGI (tumor growth inhibition)” value is given as 64.9% D60 in data set [4], 20.9% D28 in data set [5] and 23.3% D38 in data set [6] (D38). Besides, the “tumor inhibitory activity compared to ARI-002, in words” value was “better tumor inhibitory activity than parent compound ARI-002” in data set [5] (Study 3, lymphoma model, 40 mpk) and “better tumor inhibitory activity than parent compound ARI-002” in data set [6] (Study 3, lung model, 40 mpk).
